Results from patent US9610294B2, “Methods and compositions for the treatment of fluid accumulation in and/or under the retina” (UNIVERSITE PARIS DESCARTES, priority 2010, dated 2017).
“Also recorded” adds a separate entry of the source.

Experiments:
GFAP = GFAP immunostaining of retinas from aldosterone-injected eyes (glial activation); assay type: in vivo, Lewis rats; conditions: intravitreous injection, vs sham-injected retinas
Protocol: (§1) Anesthesia of rats was induced by intramuscular injection of ketamine (100 mg/kg, Virbac, Carros, France) and chlorpromazine (0.65 mg/kg, LARGACTIL®, Sanofi Aventis, Livron sur Drome, France). Intravitreous injections were performed using microfine (300 μl) syringes with 30 G needles under topical anesthesia (tetracaine 1%, Aldrich, Lyon, France). Rat eyes were injected with 5 μl aldosterone diluted in 0.9% saline to obtain a concentration of 200 nM for injection, corresponding to a final concentration of 20 nM in the vitreous. Control rat eyes were injected with 5 μl saline. Twenty-four hrs after injection, rats were sacrificed. Eyes were then removed for retinal flat mounting, immunohistochemistry and morphological analysis respectively.
Eyes were fixed for 15 min in 4% paraformaldehyde (PFA, LADD, Inland Europe, Conflans-sur-Lanterne, France). After washing, retinas were isolated, cut by 4 orthogonal incisions and post-fixed with acetone 100% at −20° C. for 15 min. They were then rehydrated with phosphate-buffered saline (PBS) containing 1% Triton X-I00, and incubated with a polyclonal rabbit antibody against AQP4 (1:100) or a polyclonal rabbit antibody against glial fibrillary acidic protein (GF AP, 1:100, Dako, Trappes, France) at room temperature under stirring overnight. […]

Kir4.1 [1] = experiment: Kir4.1 expression (real-time PCR, western blot) in rat RMG primary cultures and retinal explants; assay type: cell-based
Protocol: (§2) Rat RMG cells were obtained as described (deKozak, Y., Naud, M. C., Bellot, J., Faure, J. P., and Hicks, D. (1994) Differential tumor necrosis factor expression by resident retinal cells from experimental uveitis-susceptible and -resistant rat strains. J Neuroimmunol 55, 1-9). Briefly, rats at postnatal (PN) day 17 (when RMG cells are mature) were sacrificed and eyes enucleated. Intact eyeballs were maintained in DMEM overnight at room temperature in the dark, and then incubated 45 min with 2 mg/ml trypsin/collagenase I at 37° C. The neural retinas were separated from the lens and vitreous, cut into small fragments and plated in Petri dishes containing DMEM supplemented with 10% FCS, 100 units/ml penicillin, 100 µg/ml streptomycin, and 0.2% amphotericin B. Cultures were maintained at 37° C. in a humidified atmosphere containing 5% CO2. After 5 to 6 days, the cultures were washed extensively with medium so that only a strongly adherent flat cell population remained.
(§3) Müller cells were seeded in 6-well tissue culture plates (Becton Dickinson, Le Pont de Claix, France). Rat PN17 RMG cells were maintained in their initial Petri dishes. Sub confluent (80%) cells were incubated in media supplemented with 10% steroid-free (charcoal treated) FCS for 24 hrs. Corticosteroid (Sigma-Aldrich, Saint Quentin Fallavier, France) treatments were then applied respectively for a further 24 hrs: 10 nM aldosterone, 10 nM aldosterone plus 1).IM RU38486 (GR-specific antagonist), 10 nM aldosterone plus 1 µM RU26752 (MR-specific antagonist) or 1 µM dexamethasone. The steroids were previously dissolved in 2% steroid-free FCS media containing 0.1% ethanol. Control cells were treated with 0.1% ethanol in media.
(§4) After enucleation, rat retinas were isolated immediately under aseptic conditions and cut into 4 pieces. They were then transferred onto a Cyclopore 0.2).Im polycarbonate membrane (Whatman, Maidstone, England), and flatmounted with the vitreal side up. The support membranes were placed in 6-well tissue culture plates containing 2 ml DMEM supplemented with 10% steroid-free FCS, 1% penicillin-streptomycin and 0.1% amphotericin B. Explants were treated with corticosteroids as described for cultured cells. Similarly, the dose-dependent effect of aldosterone (0.1-100 nM) was analyzed on retinal explants in separate experiments.
(§5) Total RNA was isolated from the treated RMG cells and retinal explants using RNeasy Mini Kit (Qiagen, Courtaboeuf, France). First-strand cDNA was synthesized after DNase I (Qiagen) treatment using random primers (Invitrogen) and superscript II reverse transcriptase (Invitrogen). Transcript levels of ENaC-a, Kir4.1 and AQP4 were analyzed by real-time PCR performed in 7500 Real-Time PCR System (Applied Biosystems, Foster City, Calif., USA) with either TaqMan® (Applied Biosystems) or SYBR® Green (Invitrogen, Cergy Pontoise, France) detection. The 18S was used as internal control.
(§6) Retinal explants were homogenized in Np40 buffer in the presence of protease inhibitors. The protein concentration was determined by the Bradford method. Equal amounts of protein (12 .ug) were separated on Novex® 4%-12% Tris-Glycine gel (Invitrogen), transferred to nitrocellulose, and the blots were incubated with primary antibodies at 4° C. overnight. The membranes were washed, incubated with horse radish peroxidase conjugated goat anti-rabbit IgG (1:3000, Vector, AbCys, Paris, France) for 1 hr at room temperature, and developed using ECL Plus western blotting detection reagents (GE healthcare, Orsay, France). The j3-actin was used as internal control. The following primary antibodies were used: rabbit anti-alpha ENaC (1:500, Abcam, Cambridge, Mass., USA), rabbit anti-Kir4.1 (1:400, Alomone Labs, Jerusalem, Israel), rabbit anti-AQP4 (1:750, Millipore, St Quentin en Yvelines, France) and rabbit anti-j3-actin (1:1000, Abcam)

AQP4 = AQP4 expression (real-time PCR, western blot) in rat RMG primary cultures and retinal explants; assay type: cell-based
Protocol: as §2, §3, §4, §5, §6

Kir4.1 [2] = experiment: Kir4.1 immunofluorescence in retina of aldosterone-injected eyes; assay type: in vivo, Lewis rats; conditions: intravitreous aldosterone vs sham-injected
Protocol: as §1
Eyes were snap frozen in Tissue-Tek OCT-compound (Bayer Diagnostics, Puteaux, France). Ten μm cryostat sections of rat eyes were fixed in 4% PFA for 15 min and permeabilized with 0.1% Triton X-I00 for 30 min. Unspecific binding sites were blocked with 5% normal goat serum for 1 hr. The sections were then incubated with primary antibodies for 1 hr at room temperature, washed in PBS, and further incubated with secondary antibodies for 1 hr. […] Images were taken using a fluorescence microscope (Olympus BX51, Rungis, France) equipped with a CCD camera (Olympus DP70). […]

[3] = dose-dependent effect, retinal explants

C[C@]12CCC(=O)C=C1CC[C@@H]1[C@@H]2[C@@H](O)C[C@]2(C=O)[C@@H](C(=O)CO)CC[C@@H]12 [aldosterone]
glial (RMG) activation, GFAP distribution (GFAP): enhances glial activation; also recorded: strong activation of RMG | Kir4.1 expression (transcripts) (Kir4.1 [1]; 24 hrs treatment, rat RMG primary cultures and retinal explants): up-regulate | expression of potassium channel Kir4.1 (Kir4.1 [1]; aldosterone 24 hrs): 1.9 fold | aldosterone concentration at which increase in Kir4.1 transcripts is fully saturated (Kir4.1 [1]; [3]): 10 nM | Kir4.1 expression at the protein level (Kir4.1 [1]; western blot): up-regulated | AQP4 mRNA expression (AQP4; 24 hrs treatment, RMG primary cultures or retinal explants): increase | aquaporin 4 (AQP4) up-regulation (AQP4; aldosterone 24 hrs): 2.9 fold | aldosterone concentration at which increase in AQP4 mRNA is saturated (AQP4; [3]): 10 nM | expression of aquaporin 4 (AQP4) (AQP4; normal rat, 24 hours exposure, low aldosterone dose (1-10 nM)): enhances the expression | AQP4 expression at the protein level (AQP4; western blot): increases | Kir4.1 localization in retina (Kir4.1 [2]): additional localization; also recorded: enhanced Kir4.1 immunofluorescence in the RMG apical microvilli in the OLM; also recorded: additional mislocalization
